Among the data in ChEMBL document CHEMBL3853315, “Targeting the Translesion Synthesis Pathway for the Development of Anti-Cancer Chemotherapeutics” (J Med Chem, 2016) are GI50, inhibition and IC50 values, retold here.

The target of assay [1] is T1, Ubiquitin carboxyl-terminal hydrolase 1/WD repeat-containing protein 48 (Homo sapiens, UniProt O94782+Q8TAF3). In words: Inhibition of USP1/UAF1 complex in human H596 cells assessed as potentiation of cisplatin-induced cell killing by measuring cisplatin GI50 at 1:4 cisplatin to compound ratio pretreated for 48 hrs followed by addition of fresh growth medium measured after 5 to 10 days by colony forming assay (reference value: 486 nM). In kind it is cell-based.
T1 sequence (O94782 whole entry): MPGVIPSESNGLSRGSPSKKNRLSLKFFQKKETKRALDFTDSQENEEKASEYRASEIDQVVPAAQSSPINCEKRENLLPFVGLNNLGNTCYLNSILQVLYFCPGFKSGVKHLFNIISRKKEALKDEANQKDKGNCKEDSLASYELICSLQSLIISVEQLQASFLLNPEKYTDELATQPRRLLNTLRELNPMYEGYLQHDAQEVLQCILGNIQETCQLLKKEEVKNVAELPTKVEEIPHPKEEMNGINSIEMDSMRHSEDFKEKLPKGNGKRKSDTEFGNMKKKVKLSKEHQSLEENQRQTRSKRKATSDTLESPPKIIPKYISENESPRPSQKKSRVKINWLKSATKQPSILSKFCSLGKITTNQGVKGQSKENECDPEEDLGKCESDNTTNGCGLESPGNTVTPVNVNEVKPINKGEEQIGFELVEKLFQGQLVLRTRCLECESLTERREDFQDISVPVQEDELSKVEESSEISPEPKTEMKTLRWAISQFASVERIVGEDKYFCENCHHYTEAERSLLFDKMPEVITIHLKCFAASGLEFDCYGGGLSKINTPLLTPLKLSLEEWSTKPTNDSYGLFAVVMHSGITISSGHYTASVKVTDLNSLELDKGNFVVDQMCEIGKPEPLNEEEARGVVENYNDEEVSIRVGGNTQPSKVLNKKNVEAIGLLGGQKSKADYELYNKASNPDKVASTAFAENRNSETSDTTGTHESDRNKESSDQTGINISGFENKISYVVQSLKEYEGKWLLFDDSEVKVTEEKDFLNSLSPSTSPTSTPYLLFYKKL
T1 sequence (Q8TAF3 whole entry): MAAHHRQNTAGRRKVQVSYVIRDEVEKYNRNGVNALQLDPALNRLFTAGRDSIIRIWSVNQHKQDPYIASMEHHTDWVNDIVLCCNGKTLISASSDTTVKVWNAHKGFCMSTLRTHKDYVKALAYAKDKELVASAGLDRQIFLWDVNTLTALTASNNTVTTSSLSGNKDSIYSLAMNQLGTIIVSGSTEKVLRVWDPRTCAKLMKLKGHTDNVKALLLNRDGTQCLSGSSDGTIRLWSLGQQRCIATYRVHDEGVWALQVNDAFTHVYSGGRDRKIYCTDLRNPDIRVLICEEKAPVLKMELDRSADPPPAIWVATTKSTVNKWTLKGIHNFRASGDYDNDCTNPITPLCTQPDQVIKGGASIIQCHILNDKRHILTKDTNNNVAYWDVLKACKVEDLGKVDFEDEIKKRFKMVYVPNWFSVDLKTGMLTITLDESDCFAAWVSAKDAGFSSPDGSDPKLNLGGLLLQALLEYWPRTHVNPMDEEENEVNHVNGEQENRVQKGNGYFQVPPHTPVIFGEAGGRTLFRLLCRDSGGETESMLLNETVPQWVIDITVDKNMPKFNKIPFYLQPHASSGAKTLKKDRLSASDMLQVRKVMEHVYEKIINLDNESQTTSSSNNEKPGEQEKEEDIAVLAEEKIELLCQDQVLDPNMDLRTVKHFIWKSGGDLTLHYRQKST

Assay [2] concerns the target T1, Ubiquitin carboxyl-terminal hydrolase 1/WD repeat-containing protein 48. The assay can be described thus: Inhibition of USP1/UAF1 complex in HEK293T cells assessed as decrease in ability of DNA polymerase eta to bypass UV-induced DNA lesions after 24 hrs by strand specific PCR-based competitive replication and adduct bypass assay. In kind it is cell-based. The conditions noted are these: HEK-293T, concentration not given here.

Assay [3] deals with T2, DNA polymerase iota (Homo sapiens, UniProt Q9UNA4).
T2 sequence (Q9UNA4 whole entry): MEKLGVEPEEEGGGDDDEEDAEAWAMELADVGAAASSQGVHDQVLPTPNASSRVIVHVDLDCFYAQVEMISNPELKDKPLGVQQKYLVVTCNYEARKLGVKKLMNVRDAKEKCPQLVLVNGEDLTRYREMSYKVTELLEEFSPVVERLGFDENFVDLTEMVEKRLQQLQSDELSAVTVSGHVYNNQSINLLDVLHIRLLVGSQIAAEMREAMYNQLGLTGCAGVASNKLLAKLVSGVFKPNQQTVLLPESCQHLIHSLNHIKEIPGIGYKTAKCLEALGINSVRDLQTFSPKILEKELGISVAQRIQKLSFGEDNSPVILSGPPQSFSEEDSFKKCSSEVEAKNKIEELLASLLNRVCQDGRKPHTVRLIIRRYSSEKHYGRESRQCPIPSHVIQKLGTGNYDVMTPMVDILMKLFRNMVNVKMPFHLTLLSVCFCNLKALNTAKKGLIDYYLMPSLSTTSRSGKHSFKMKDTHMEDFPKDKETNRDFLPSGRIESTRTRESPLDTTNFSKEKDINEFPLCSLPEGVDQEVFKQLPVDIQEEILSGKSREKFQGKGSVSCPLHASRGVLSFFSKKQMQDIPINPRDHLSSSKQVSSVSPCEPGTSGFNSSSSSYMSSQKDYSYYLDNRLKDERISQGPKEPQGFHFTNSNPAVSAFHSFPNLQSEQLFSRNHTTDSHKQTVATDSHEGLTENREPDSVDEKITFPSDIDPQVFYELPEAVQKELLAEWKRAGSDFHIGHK
The assay can be described thus: Inhibition of human recombinant DNA polymerase iota expressed in Baculovirus expression system using TAMRA/BHQ-2-labeled primer/template measured at 2 to 6 mins by reporter-strand displacement assay.

Assay [4] deals with T3, DNA polymerase eta (Homo sapiens, UniProt Q9Y253).
T3 sequence (Q9Y253 whole entry): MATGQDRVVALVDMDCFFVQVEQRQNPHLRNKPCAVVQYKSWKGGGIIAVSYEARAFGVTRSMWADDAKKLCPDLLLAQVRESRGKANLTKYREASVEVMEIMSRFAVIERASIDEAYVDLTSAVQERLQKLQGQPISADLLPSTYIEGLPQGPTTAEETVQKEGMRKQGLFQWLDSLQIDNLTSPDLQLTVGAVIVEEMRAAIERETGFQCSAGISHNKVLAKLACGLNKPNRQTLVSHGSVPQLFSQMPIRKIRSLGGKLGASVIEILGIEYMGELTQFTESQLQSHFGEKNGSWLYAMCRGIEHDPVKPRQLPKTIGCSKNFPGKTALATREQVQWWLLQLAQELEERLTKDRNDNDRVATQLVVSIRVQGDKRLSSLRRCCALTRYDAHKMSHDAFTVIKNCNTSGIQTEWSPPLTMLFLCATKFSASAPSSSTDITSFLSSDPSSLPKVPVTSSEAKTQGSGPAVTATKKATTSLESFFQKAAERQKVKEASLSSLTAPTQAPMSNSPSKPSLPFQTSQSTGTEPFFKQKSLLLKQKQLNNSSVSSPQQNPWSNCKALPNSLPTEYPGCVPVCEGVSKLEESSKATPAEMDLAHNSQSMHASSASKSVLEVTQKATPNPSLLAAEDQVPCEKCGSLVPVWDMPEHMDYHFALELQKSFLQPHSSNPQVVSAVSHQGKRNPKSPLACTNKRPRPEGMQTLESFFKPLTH
In words: Inhibition of human recombinant DNA polymerase eta expressed in Baculovirus expression system using TAMRA/BHQ-2-labeled primer/template measured at 2 to 6 mins by reporter-strand displacement assay.

Assay [5] deals with Ubiquitin carboxyl-terminal hydrolase 1/WD repeat-containing protein 48 (Homo sapiens, UniProt O94782). In words: Inhibition of human USP1/UAF1 complex using Ub-Rho as substrate preincubated for 30 mins followed by substrate addition by fluorescence-based HTS assay. In kind it is protein-complex assay.
Chain of Ubiquitin carboxyl-terminal hydrolase 1/WD repeat-containing protein 48 (Homo sapiens, UniProt O94782) (O94782 whole entry): as the sequence (O94782 whole entry) above
Chain of Ubiquitin carboxyl-terminal hydrolase 1/WD repeat-containing protein 48 (Homo sapiens, UniProt O94782) (Q8TAF3 whole entry, further chain): as the sequence (Q8TAF3 whole entry) above
Assay [6] concerns the target T1, Ubiquitin carboxyl-terminal hydrolase 1/WD repeat-containing protein 48. The assay can be described thus: Inhibition of human USP1/UAF1 complex using Ub-Rho as substrate by qHTS assay. In kind it is protein-complex assay. On the technique in general: Quantitative high-throughput screening tests each substance at several concentrations.
Assay [7] can be described thus: Growth inhibition of human MDA-MB-231 cells after 72 hrs by MTT assay. The note with it: MDA-MB-231, 72 h. In kind it is functional.
Assay [8] deals with T4, DNA polymerase kappa (Homo sapiens, UniProt Q9UBT6).
T4 sequence (Q9UBT6 whole entry): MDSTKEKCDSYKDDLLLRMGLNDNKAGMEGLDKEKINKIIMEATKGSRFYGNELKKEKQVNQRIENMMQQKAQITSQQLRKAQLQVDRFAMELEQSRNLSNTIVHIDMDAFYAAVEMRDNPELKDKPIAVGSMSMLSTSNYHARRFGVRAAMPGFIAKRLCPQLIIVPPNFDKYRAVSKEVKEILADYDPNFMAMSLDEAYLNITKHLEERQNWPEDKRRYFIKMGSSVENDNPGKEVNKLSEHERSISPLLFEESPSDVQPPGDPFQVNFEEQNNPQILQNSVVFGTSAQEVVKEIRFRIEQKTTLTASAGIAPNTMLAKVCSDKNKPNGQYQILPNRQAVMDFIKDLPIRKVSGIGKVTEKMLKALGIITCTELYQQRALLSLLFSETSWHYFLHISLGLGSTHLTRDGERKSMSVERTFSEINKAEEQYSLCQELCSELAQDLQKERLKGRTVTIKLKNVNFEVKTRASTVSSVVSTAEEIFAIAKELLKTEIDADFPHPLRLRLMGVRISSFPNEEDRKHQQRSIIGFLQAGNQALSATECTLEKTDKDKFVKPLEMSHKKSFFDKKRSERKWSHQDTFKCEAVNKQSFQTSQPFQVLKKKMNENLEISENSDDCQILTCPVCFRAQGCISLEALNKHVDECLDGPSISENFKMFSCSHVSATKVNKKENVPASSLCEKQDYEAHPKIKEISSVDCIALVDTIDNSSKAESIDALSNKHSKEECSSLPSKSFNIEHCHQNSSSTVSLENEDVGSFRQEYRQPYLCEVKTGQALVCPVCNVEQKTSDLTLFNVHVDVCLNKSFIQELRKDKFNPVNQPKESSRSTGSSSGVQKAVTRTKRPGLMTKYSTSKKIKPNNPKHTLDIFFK
In words: Inhibition of human DNA polymerase kappa (19 to 526 residues)-mediated TLS past acrolein derived ring-opened reduced form of gamma-HOPdG lesions preincubated for 15 mins followed by DNA substrate addition measured after 30 mins in presence of dCTP and dGTP by radioactive gel-based primer extension assay.

Turning to `Cc1cnc(-c2ccccc2C(C)C)nc1NCc1ccc(-n2ccnn2)cc1`, the GI50 in assay [1] was found to be 59 nM. Moreover, the inhibition in assay [2] came to 31%.
For the compound `O=C(O)C1=CC(=C(c2ccc(O)c(C(=O)O)c2)c2ccc(O)c(C(=O)O)c2)C=CC1=O` [AURINTRICARBOXYLIC ACID], the IC50 in assay [3] and in assay [4] was 75 nM in each case.
In turn, `O=C1c2ccccc2C(=O)C2OC(c3ccc(F)cc3)=NC12` (centres undefined) showed an IC50 in assay [5] of 880 nM.
In turn, `CC(C)(Sc1ccc(CCN(CCCCC2CCCCC2)C(=O)NC2CCCCC2)cc1)C(=O)O` [GW7647] showed an IC50 in assay [6] of 5000 nM.
`CC(=O)c1c(O)c(C)c(O)c(Cc2c(O)c3c(c(C(=O)/C=C/c4ccccc4)c2O)OC(C)(C)C=C3)c1O` [ROTTLERIN]: the IC50 in assay [6] stood at 8000 nM.
In assay [6], `O=c1[nH]c2ccccc2n1C1CCN(CCCC(c2ccc(F)cc2)c2ccc(F)cc2)CC1` [PIMOZIDE] showed an IC50 of 2000 nM.
Turning to `Cc1ccc(Nc2nc(N)nc(COC(=O)c3ccc([N+](=O)[O-])cc3)n2)cc1`, the GI50 in assay [7] was found to be 10000 nM.
With `O=c1oc2c(O)c(O)cc3c(=O)oc4c(O)c(O)cc1c4c23` [ELLAGIC ACID], the IC50 in assay [3] and in assay [4] was 62 nM each time.
As to `CCOc1nc2cccc(C(=O)OC(C)OC(=O)OC3CCCCC3)c2n1Cc1ccc(-c2ccccc2-c2nnn[nH]2)cc1` (centres undefined) [CANDESARTAN CILEXETIL], the concentration for half-maximal inhibition (IC50) in assay [8] stood at 5600 nM.
Take `CN1CCN(CCCN2c3ccccc3Sc3ccc(C(F)(F)F)cc32)CC1` [TRIFLUOPERAZINE]: in assay [6], inhibition was half-maximal at 8000 nM (IC50).
For the compound `Nc1nc(COC(=O)c2ccc([N+](=O)[O-])cc2)nc(Nc2ccccc2)n1`, the GI50 in assay [7] turned out to be 10000 nM.

As a reminder, the GI50 is the concentration giving 50% growth inhibition. For orientation: inhibition means the relative decrease from the control value, in per cent. What is called IC50 is the concentration that gives 50% inhibition.
